Molecules are shown by their SMILES.

These results are taken from patent publication US9169254B2, “Spiroimidazolone derivative” (Chugai Seiyaku Kabushiki Kaisha, priority 2009, dated 2015).

For the first experiment, the target named is T1, human PTH1 receptor (Homo sapiens, UniProt Q03431).
T1 sequence (Q03431 27-593): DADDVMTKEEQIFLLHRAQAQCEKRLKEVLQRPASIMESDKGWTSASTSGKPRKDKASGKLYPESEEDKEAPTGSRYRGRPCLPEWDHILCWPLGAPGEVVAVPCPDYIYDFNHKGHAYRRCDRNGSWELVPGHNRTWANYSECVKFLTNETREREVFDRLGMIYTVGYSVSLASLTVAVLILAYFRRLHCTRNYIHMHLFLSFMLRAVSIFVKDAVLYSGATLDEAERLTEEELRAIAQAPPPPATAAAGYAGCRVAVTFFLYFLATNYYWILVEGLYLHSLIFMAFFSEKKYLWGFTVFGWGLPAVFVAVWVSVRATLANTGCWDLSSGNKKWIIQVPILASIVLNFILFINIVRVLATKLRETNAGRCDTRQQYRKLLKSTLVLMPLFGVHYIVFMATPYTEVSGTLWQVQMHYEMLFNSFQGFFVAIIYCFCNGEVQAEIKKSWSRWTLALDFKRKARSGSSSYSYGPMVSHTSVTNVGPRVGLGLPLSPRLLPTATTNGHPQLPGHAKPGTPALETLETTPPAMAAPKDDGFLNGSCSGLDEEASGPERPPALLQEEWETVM
In words: In vitro cAMP signal activity in HKRK-B7 cells (LLC-PK1 cells overexpressing the human PTH1 receptor). Particulars: HKRK-B7 cells; compound at 1×10^−3 M; […]; 0.1 µM. Type of experiment: cell-based.
For the compound `CC(=O)N(c1ccc(/C=C/S(=O)(=O)N2CCC3(CC2)N=C(c2cccc(OC(F)(F)F)c2)NC3=O)c(C)c1)C1CCN(C(=O)OC(C)(C)C)CC1` [Compound 604, 4-[acetyl-(3-methyl-4-{(E)-2-[4-oxo-2-(3-trifluoromethoxy-phenyl)-1,3,8-triaza-spiro[4.5]dec-1-ene-8-sulfonyl]-vinyl}-phenyl)-amino]-piperidine-1-carboxylic acid tert-butyl ester], the “cAMP production activity (%)” value came out at 21%.

Still in this experiment, the particulars now being: HKRK-B7 cells; compound at 1×10^−3 M; cAMP produced as percentage of that produced by hPTH(1-34) at 100 nM.
For the compound `Cc1cc(N(C)c2ncc[nH]2)cc(C)c1/C=C/S(=O)(=O)N1CCC2(CC1)N=C(C1CCC(C)CC1)NC2=O` (stereo not drawn) [Compound 586, 8-((E)-2-{4-[(1H-imidazol-2-yl)-methyl-amino]-2,6-dimethyl-phenyl}-ethenesulfonyl)-2-(4-methyl-cyclohexyl)-1,3,8-triaza-spiro[4.5]dec-1-en-4-one], the “cAMP production activity (%)” value is recorded as 82%. On to `Cc1cc(N2CCC(=O)NC2=O)cc(C)c1/C=C/S(=O)(=O)N1CCC2(CC1)N=C(C1CCC(C)CC1)NC2=O` (stereo not drawn) [Compound 587, 1-(3,5-dimethyl-4-{(E)-2-[2-(4-methyl-cyclohexyl)-4-oxo-1,3,8-triaza-spiro[4.5]dec-1-ene-8-sulfonyl]-vinyl}-phenyl)-dihydro-pyrimidine-2,4-dione], for which the “cAMP production activity (%)” value amounted to 53%.

Take `Cc1cc(N2NCCC2=O)ccc1/C=C/S(=O)(=O)N1CCC2(CC1)N=C([C@H]1CC[C@H](C)CC1)NC2=O` [Compound 588, 2-(4-methyl-cyclohexyl)-8-{(E)-2-[2-methyl-4-(5-oxo-pyrazolidin-1-yl)-phenyl]-ethenesulfonyl}-1,3,8-triaza-spiro[4.5]dec-1-en-4-one]: the “cAMP production activity (%)” value is 77%. `Cc1cc(N2C(=O)NC(COC(C)(C)C)C2=O)cc(C)c1/C=C/S(=O)(=O)N1CCC2(CC1)N=C([C@H]1CC[C@H](C)CC1)NC2=O` (stereo partly drawn) [Compound 589, 5-tert-butoxymethyl-3-(3,5-dimethyl-4-{(E)-2-[2-(4-methyl-cyclohexyl)-4-oxo-1,3,8-triaza-spiro[4.5]dec-1-ene-8-sulfonyl]-vinyl}-phenyl)-imidazolidine-2,4-dione]: the “cAMP production activity (%)” value stood at 22%. Same read-out and setting: the value for `Cc1cc(S(=O)(=O)NCC(=O)N(C)C)ccc1/C=C/S(=O)(=O)N1CCC2(CC1)N=C(c1cccc(C(F)(F)F)c1)NC2=O` [Compound 590, N,N-Dimethyl-2-(3-methyl-4-{(E)-2-[4-oxo-2-(3-trifluoromethyl-phenyl)-1,3,8-triaza-spiro[4.5]dec-1-ene-8-sulfonyl]-vinyl}-benzenesulfonylamino)-acetamide] was 70%.

Regarding `Cc1cc(S(=O)(=O)NCc2cccnc2)ccc1/C=C/S(=O)(=O)N1CCC2(CC1)N=C(c1cccc(C(F)(F)F)c1)NC2=O` [Compound 591, 3-methyl-4-{(E)-2-[4-oxo-2-(3-trifluoromethyl-phenyl)-1,3,8-triaza-spiro[4.5]dec-1-ene-8-sulfonyl]-vinyl}-N-pyridin-3-ylmethyl-benzenesulfonamide], the “cAMP production activity (%)” value worked out at 34%. In the case of `Cc1cc(S(=O)(=O)NC2CCC(O)CC2)ccc1/C=C/S(=O)(=O)N1CCC2(CC1)N=C(c1cccc(C(F)(F)F)c1)NC2=O` (stereo not drawn) [Compound 592, N-(4-hydroxy-cyclohexyl)-3-methyl-4-{(E)-2-[4-oxo-2-(3-trifluoromethyl-phenyl)-1,3,8-triaza-spiro[4.5]dec-1-ene-8-sulfonyl]-vinyl}-benzenesulfonamide], the “cAMP production activity (%)” value is reported as 87%. On to `Cc1cc(S(C)(=O)=O)ccc1/C=C/S(=O)(=O)N1CCC2(CC1)N=C(c1cccc(C(F)(F)F)c1)NC2=O` [Compound 593, 8-[(E)-2-(4-methanesulfonyl-2-methyl-phenyl)-ethenesulfonyl]-2-(3-trifluoromethyl-phenyl)-1,3,8-triaza-spiro[4.5]dec-1-en-4-one], for which the “cAMP production activity (%)” value came to 28%. On to `CC(=O)NS(=O)(=O)c1ccc(/C=C/S(=O)(=O)N2CCC3(CC2)N=C(c2cccc(C(F)(F)F)c2)NC3=O)c(C)c1` [Compound 594, N-acetyl-3-methyl-4-{(E)-2-[4-oxo-2-(3-trifluoromethyl-phenyl)-1,3,8-triaza-spiro[4.5]dec-1-ene-8-sulfonyl]-vinyl}-benzenesulfonamide], for which the “cAMP production activity (%)” value was found to be 69%.

For `Cc1cc(S(=O)(=O)NC(CO)(CO)CO)ccc1/C=C/S(=O)(=O)N1CCC2(CC1)N=C(c1cccc(C(F)(F)F)c1)NC2=O` [Compound 595, N-(2-hydroxy-1,1-bis-hydroxymethyl-ethyl)-3-methyl-4-{(E)-2-[4-oxo-2-(3-trifluoromethyl-phenyl)-1,3,8-triaza-spiro[4.5]dec-1-ene-8-sulfonyl]-vinyl}-benzenesulfonamide], the “cAMP production activity (%)” value is given as 63%. For `Cc1cc(S(=O)(=O)NC2CCN(Cc3ccccc3)CC2)ccc1/C=C/S(=O)(=O)N1CCC2(CC1)N=C(c1cccc(OC(F)(F)F)c1)NC2=O` [Compound 596, N-(1-Benzyl-piperidin-4-yl)-3-methyl-4-{(E)-2-[4-oxo-2-(3-trifluoromethoxy-phenyl)-1,3,8-triaza-spiro[4.5]dec-1-ene-8-sulfonyl]-vinyl}-benzenesulfonamide], the “cAMP production activity (%)” value is given as 40%. `O=C1NC(c2cccc(OC(F)(F)F)c2)=NC12CCN(S(=O)(=O)/C=C/c1ccc3c(ccn3C[C@H](O)CO)c1)CC2` [Compound 597, 8-{(E)-2-[1-((S)-2,3-dihydroxy-propyl)-1H-indol-5-yl]-ethenesulfonyl}-2-(3-trifluoromethoxy-phenyl)-1,3,8-triaza-spiro[4.5]dec-1-en-4-one]: the “cAMP production activity (%)” value came out at 51%. The same measure, in the same setting: to `Cc1cc(C(=O)N2CCN(C(C)C)CC2)ccc1/C=C/S(=O)(=O)N1CCC2(CC1)N=C(c1cccc(OC(F)(F)F)c1)NC2=O` [Compound 598, 8-{(E)-2-[4-(4-isopropyl-piperazine-1-carbonyl)-2-methyl-phenyl]-ethenesulfonyl}-2-(3-trifluoromethoxy-phenyl)-1,3,8-triaza-spiro[4.5]dec-1-en-4-one] belongs 74%; to `Cc1cc(S(=O)(=O)NC[C@@H](O)CO)ccc1/C=C/S(=O)(=O)N1CCC2(CC1)N=C(c1cccc(OC(F)(F)F)c1)NC2=O` [Compound 599, N—((R)-2,3-dihydroxy-propyl)-3-methyl-4-{(E)-2-[4-oxo-2-(3-trifluoromethoxy-phenyl)-1,3,8-triaza-spiro[4.5]dec-1-ene-8-sulfonyl]-vinyl}-benzenesulfonamide], 59%; to `O=C1NC(c2cccc(OC(F)(F)F)c2)=NC12CCN(S(=O)(=O)/C=C/c1cc(F)c(OCCC(O)CO)c(F)c1)CC2` (stereo not drawn) [Compound 600, 8-{(E)-2-[4-(3,4-dihydroxy-butoxy)-3,5-difluoro-phenyl]-ethenesulfonyl}-2-(3-trifluoromethoxy-phenyl)-1,3,8-triaza-spiro[4.5]dec-1-en-4-one], 67%.

On to `Cc1cc(/C=C/S(=O)(=O)N2CCC3(CC2)N=C(c2cccc(OC(F)(F)F)c2)NC3=O)cc(C)c1OCCC(O)CO` (stereo not drawn) [Compound 601, 8-{(E)-2-[4-(3,4-dihydroxy-butoxy)-3,5-dimethyl-phenyl]-ethenesulfonyl}-2-(3-trifluoromethoxy-phenyl)-1,3,8-triaza-spiro[4.5]dec-1-en-4-one], for which the “cAMP production activity (%)” value worked out at 64%. With `Cc1cc(OC2CCN(C(=O)OC(C)(C)C)CC2)ccc1/C=C/S(=O)(=O)N1CCC2(CC1)N=C(c1cccc(OC(F)(F)F)c1)NC2=O` [Compound 602, 4-(3-methyl-4-{(E)-2-[4-oxo-2-(3-trifluoromethoxy-phenyl)-1,3,8-triaza-spiro[4.5]dec-1-ene-8-sulfonyl]-vinyl}-phenoxy)-piperidine-1-carboxylic acid tert-butyl ester], the “cAMP production activity (%)” value is on record as 3.0%.

As to `CC(=O)N(c1ccc(/C=C/S(=O)(=O)N2CCC3(CC2)N=C(c2cccc(OC(F)(F)F)c2)NC3=O)c(C)c1)C(C)C` [Compound 603, N-isopropyl-N-(3-methyl-4-{(E)-2-[4-oxo-2-(3-trifluoromethoxy-phenyl)-1,3,8-triaza-spiro[4.5]dec-1-ene-8-sulfonyl]-vinyl}-phenyl)-acetamide], the “cAMP production activity (%)” value stood at 69%. Still for that read-out and setting: to `Cc1cc(N(CCO)C(N)=O)cc(C)c1/C=C/S(=O)(=O)N1CCC2(CC1)N=C(c1cccc(OC(F)(F)F)c1)NC2=O` [Compound 605, 1-(3,5-dimethyl-4-{(E)-2-[4-oxo-2-(3-trifluoromethoxy-phenyl)-1,3,8-triaza-spiro[4.5]dec-1-ene-8-sulfonyl]-vinyl}-phenyl)-1-(2-hydroxy-ethyl)-urea] belongs 54%. For the compound `Cc1cc(N2C(=O)CC[C@@H]2CNC(C)C)cc(C)c1/C=C/S(=O)(=O)N1CCC2(CC1)N=C(c1cccc(OC(F)(F)F)c1)NC2=O` [Compound 606, 8-((E)-2-{4-[(R)-2-(isopropylamino-methyl)-5-oxo-pyrrolidin-1-yl]-2,6-dimethyl-phenyl}-ethenesulfonyl)-2-(3-trifluoromethoxy-phenyl)-1,3,8-triaza-spiro[4.5]dec-1-en-4-one], the “cAMP production activity (%)” value is given as 28%.
